Laboratory results as given in paper PMC9290910, “Neuropilin‐1 is required for endothelial cell adhesion to soluble vascular endothelial growth factor receptor 1” (The Febs Journal, 2021).
Entries after “also recorded” stand apart in the source; their conditions may differ.

What was measured:
[1] = test system: EC (HUVEC) adhesion to sVEGFR‐1; experiment: Cell adhesion assay, EC adhesion to sVEGFR‐1; assay type: cell-based, human; conditions: for effect on EC adhesion to sVEGFR‐1: peptide 20 µg·mL^−1 during adhesion, 37 °C, 1 h, 20 µg·mL^−1 VEGFR‐1/Fc coating, crystal violet, 540 nm, triplicate
Method: (§1) Human umbilical vein endothelial cells (HUVEC) were isolated from freshly delivered umbilical cords, as previously described, cultured in Endothelial Cell Growth Medium‐2 Kit from Clonetics (EGM‐2, CC4176, Lonza, Basel, Switzerland), and used up to passage 6. For functional assays, HUVEC were resuspended in Endothelial Basal Medium‐2 (EBM‐2, CC3156, Lonza). A pool of cells derived from four different individuals was used.
(§2) Solid support for adhesion assay was prepared by incubating immunological 96‐multiwell plates with 20 µg·mL^−1 VEGFR‐1/Fc chimera, or fibronectin solubilized in PBS. After 2 h, the coating solution was removed, and the well surface was blocked with 3% BSA in PBS for 18 h, before plating ECs in serum‐free medium at 3 × 10^4 cells per well. After incubation at 37 °C for 1 h, the wells were washed with PBS and attached cells were fixed with 3% formaldehyde and stained with 0.5% crystal violet. Attachment efficiency was determined by quantitative dye extraction and spectrophotometric measurement of the absorbance at 540 nm, using a Microplate reader 3550‐UV (Bio‐Rad). In competition experiments, peptides Flt2‐11, scrambled Flt2‐11, Flt2‐8 or Flt2‐5, at 20 µg·mL^−1, were added during the adhesion assay. Adhesion to peptide 12 was carried out by using maleic anhydride activated microplates (Reacti‐Bind, Pierce, Rockford, IL, USA) coated with 500 µg·mL^−1 of the peptide.

[2] = test system: EC (HUVEC) adhesion to fibronectin; experiment: Cell adhesion assay, EC adhesion to fibronectin; assay type: cell-based, human
Method: as §1, §2

[3] = target: T1, NRP‐1/VEGFR‐1 interaction (Homo sapiens, UniProt O14786); experiment: SPR, inhibition of NRP‐1/VEGFR‐1 interaction; assay type: binding; conditions: in words, NRP‐1 immobilized, VEGFR‐1 5 nM
T1 construct: purchased R&D Systems 3870-N1 (NRP-1); 321-FL-050 (VEGFR-1/Fc)
T1 sequence (O14786 22-644 isoform O14786-2 limits assumed): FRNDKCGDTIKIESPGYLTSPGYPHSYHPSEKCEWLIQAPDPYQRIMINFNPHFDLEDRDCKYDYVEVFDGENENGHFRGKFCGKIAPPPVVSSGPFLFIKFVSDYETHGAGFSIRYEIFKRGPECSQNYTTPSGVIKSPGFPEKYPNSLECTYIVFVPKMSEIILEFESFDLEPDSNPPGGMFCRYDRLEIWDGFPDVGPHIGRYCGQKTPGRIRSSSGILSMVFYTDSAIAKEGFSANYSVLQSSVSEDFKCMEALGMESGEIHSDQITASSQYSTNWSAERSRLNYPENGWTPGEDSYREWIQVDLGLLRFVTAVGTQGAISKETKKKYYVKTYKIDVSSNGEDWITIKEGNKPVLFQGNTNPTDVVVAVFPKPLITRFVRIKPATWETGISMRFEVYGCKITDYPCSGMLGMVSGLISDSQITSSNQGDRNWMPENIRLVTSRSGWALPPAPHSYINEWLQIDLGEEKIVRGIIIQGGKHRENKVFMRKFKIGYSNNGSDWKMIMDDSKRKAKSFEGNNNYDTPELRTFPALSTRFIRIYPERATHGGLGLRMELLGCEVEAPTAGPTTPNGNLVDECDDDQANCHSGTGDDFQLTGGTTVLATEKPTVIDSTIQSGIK
Method: Fig. 2 Flt2‐11 peptide inhibits NRP‐1 binding to VEGFR‐1. SPR analysis of the interaction between VEGFR‐1 and NRP‐1 in peptide absence (A), or presence of Flt2‐11 peptide (B) or scrambled Flt2‐11 peptide (C). NRP‐1 is immobilized on the sensor chip. (A) VEGFR‐1 is injected at different concentrations (from bottom to top: 0.6 nM, cyan; 1 nM, red; 2 nM, green; 2.5 nM, blue; and 5 nM, black). […] (B) VEGFR‐1 is injected at 5 nM together with peptide Flt2‐11 at different concentrations (from top to bottom: 0, black; 5 nM, blue; 15 nM, green; 45 nM, red; 100 nM, cyan; and 800 nM, magenta). […] (C) VEGFR‐1 is injected at 5 nM together with ‘scrambled’ Flt2‐11 peptide at different concentrations (from top to bottom: 0, black; 0.5 μM, blue; 950 μM, geen; and […], red).
SPR experiments were carried out using a BIACORE X system (Biacore AB, Uppsala, Sweden). […] The reaction was carried out in 20 mM sodium acetate at pH 5.0, which is about 2 points below the theoretical NRP‐1 isoelectric point calculated using the program pI‐tool. […]
RU express the mass concentration‐dependent changes in the observed SPR signal, that is, the refractive index on the sensor chip surface. Changes in this signal are determined by the interaction between the immobilized protein (i.e., either NRP‐1 or VEGFR‐1) with the analyte protein (i.e., VEGFR‐1/Fc, α5β1 integrin or semaphorin 3A). […]

[4] = test system: HUVEC migration towards sVEGFR‐1; experiment: Migration assay (Boyden chamber) towards sVEGFR‐1; assay type: cell-based, human; conditions: peptide 40 µM, 30 min preincubation; sVEGFR‐1 5 µg·mL^−1; 2 h, 37 °C; triplicate
Method: as §1
Cell migration was analysed using Boyden chambers equipped with 8 µm pore diameter polycarbonate filters (Nuclepore, Whatman Incorporated, Clifton, NJ, USA). Human sVEGFR‐1 stimulus (5 µg·mL^−1) for chemotaxis was added to the lower chamber and HUVEC (1.5 × 10^5) were loaded into the upper chamber. […] Cells were then loaded into the Boyden chambers without removing the peptides, and migration towards sVEGFR‐1 was analysed. […] Cells from the upper surface were removed by wiping with a cotton swab, and the chemotactic response was determined by counting the migrating cells attached to the lower surface of the filter in 12 randomly selected microscopic fields (×200 magnification) per experimental condition. Quantification was performed by two independent observers, blinded to the examined condition.

[5] = target: T2, Recombinant human NRP‐1 (human, UniProt O14786 22-856); experiment: SPR; competition: NRP-1 immobilised by amine coupling; protein analyte at a fixed concentration (VEGFR-1/Fc 5 nM; α5β1 integrin 200 nM; semaphorin 3A 200 nM) injected together with peptide at different concentrations; HEPES-buffered saline; conditions: both partners purified
T2 construct: Neuropilin-1, human, recombinant soluble protein; see the vendor's datasheet (as far as I recall an extracellular fragment with a C-terminal His tag); also called Neuropilin‐1; soluble NRP‐1; source: bought: R&D Systems (3870‐N1)
T2 sequence (looked up): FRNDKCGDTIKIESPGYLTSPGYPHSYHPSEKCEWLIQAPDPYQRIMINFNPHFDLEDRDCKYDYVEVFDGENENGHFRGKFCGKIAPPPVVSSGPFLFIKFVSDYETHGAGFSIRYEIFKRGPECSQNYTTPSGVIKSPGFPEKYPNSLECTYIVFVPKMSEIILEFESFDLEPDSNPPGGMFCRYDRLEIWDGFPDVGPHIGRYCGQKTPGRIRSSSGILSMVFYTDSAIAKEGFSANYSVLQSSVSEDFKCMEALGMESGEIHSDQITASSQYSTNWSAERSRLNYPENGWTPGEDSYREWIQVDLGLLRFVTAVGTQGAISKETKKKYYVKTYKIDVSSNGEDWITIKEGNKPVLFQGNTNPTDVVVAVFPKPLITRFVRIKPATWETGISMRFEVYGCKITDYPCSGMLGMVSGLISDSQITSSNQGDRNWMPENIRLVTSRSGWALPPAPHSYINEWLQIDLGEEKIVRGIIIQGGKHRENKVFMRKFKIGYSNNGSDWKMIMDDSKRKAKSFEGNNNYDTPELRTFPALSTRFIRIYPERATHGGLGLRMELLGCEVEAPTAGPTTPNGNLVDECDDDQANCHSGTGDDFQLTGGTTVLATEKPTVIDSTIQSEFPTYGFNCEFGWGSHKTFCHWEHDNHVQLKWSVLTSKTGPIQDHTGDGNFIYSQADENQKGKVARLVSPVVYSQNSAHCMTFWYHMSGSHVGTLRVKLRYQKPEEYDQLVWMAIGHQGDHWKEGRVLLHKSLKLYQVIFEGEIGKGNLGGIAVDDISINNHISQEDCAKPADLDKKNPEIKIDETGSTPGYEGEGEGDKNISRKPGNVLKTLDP

[6] = ECs pretreated with soluble NRP‐1

## LVPLKIKNTFT [scrambled Flt2‐11, containing the same residues as Flt2‐11 but in a different order, reference compound]
[1]
  effect on EC adhesion to sVEGFR‐1: does not affect EC adhesion
[2]; peptide 20 µg·mL^−1 during adhesion, 37 °C, 1 h, 20 µg·mL^−1 fibronectin coating, crystal violet, 540 nm, triplicate
  effect on EC adhesion to fibronectin: does not affect EC adhesion
[3]
  effect on NRP‐1/VEGFR‐1 (sVEGFR‐1) interaction: had no effect on NRP‐1/VEGFR‐1 interaction; also recorded: inhibits NRP‐1/VEGFR‐1 interaction only at high concentrations

## NITVT [Flt2‐5, Flt2‐11 peptide variant comprising the first five N‐terminal residues]
[1]
  effect on EC adhesion to sVEGFR‐1: same ability as the parent Flt2‐11 peptide to inhibit cell adhesion to; also recorded: able to significantly inhibit EC adhesion; also recorded: efficacy comparable to that of the parent eleven‐residue Flt2‐11 peptide
[4]
  effect on EC migration towards sVEGFR‐1: same ability as the parent Flt2‐11 peptide to inhibit cell adhesion to, and migration towards, sVEGFR‐1; also recorded: migration towards, sVEGFR‐1 (Fig. 6C), to a similar extent as the Flt2‐11 peptide; also recorded: efficacy comparable to that of the parent eleven‐residue Flt2‐11 peptide
[3]
  effect on NRP‐1/VEGFR‐1 (sVEGFR‐1) interaction: inhibiting NRP‐1/sVEGFR‐1 interaction as well

## soluble NRP‐1: Recombinant human NRP‐1 (3870‐N1), R&D Systems
[1]; [6]
  effect of soluble NRP‐1 on EC adhesion to sVEGFR‐1: not detectably altered
[1]; soluble NRP‐1 on coated plates prior to EC addition
  effect of soluble NRP‐1 on EC adhesion to sVEGFR‐1: impaired
[2]; [6]
  effect of soluble NRP‐1 on EC adhesion to fibronectin: not detectably altered

B1: Flt_(2‐11) peptide (peptide)
peptide: NITVTLKKFPL
notes: Unlabelled peptide, as co-injected in the SPR experiments; also called peptide Flt_(2‐11); source: synthetic peptide (Primm, Milan)
[5]
  Ki: 20 nM
